We go through 14 compounds from article PMC10326263 (Acta Pharmaceutica Sinica. B, 2023).

Series [1] deals with HIV-1 WT strain (IIIB). Kind of series: Anti-HIV activity against WT HIV-1. The settings on record: WT HIV-1 IIIB.
Series [2] has as its system HIV-1 mutant strain Y188L. Kind of series: microbe, parasite or virus in culture. The series is classed as cell-based. The note with it: Human immunodeficiency virus 1, MT4, read-out: EC50 Y188L.
In series [3] the test system is HIV-1 mutant strain K103N. As to the kind of experiment: microbe, parasite or virus in culture. The series is classed as cell-based. The settings on record: Human immunodeficiency virus 1, MT4, read-out: EC50 K103N.
The nature of series [4]: Cytotoxicity in mock-infected MT-4 cells, MTT method. Format: cell-based. The settings on record: human, mock-infected MT-4 cells, CC50, mock-infected MT-4 cells. In general terms: Tetrazolium dyes change colour on reduction, which living cells bring about.
Series [5] relates to HIV-1 mutant strain E138K. Kind of series: microbe, parasite or virus in culture. The settings on record: Human immunodeficiency virus 1, MT4, read-out: EC50 E138K. The series is classed as cell-based.
The test system of series [6] is HIV-1 mutant strain RES056 (K103N + Y181C). As to the kind of experiment: microbe, parasite or virus in culture. Format: cell-based. The settings on record: Human immunodeficiency virus 1, MT4, read-out: EC50 RES056.
Series [7] deals with HIV-1 mutant strain Y181C. Kind of series: microbe, parasite or virus in culture. The note with it: Human immunodeficiency virus 1, MT4, read-out: EC50 Y181C. Format: cell-based.
In series [8] the test system is HIV-1 mutant strain F227L + V106A. Kind of series: microbe, parasite or virus in culture. The note with it: Human immunodeficiency virus 1, MT4, read-out: EC50 F227L + V106A. The series is classed as cell-based.
Series [9] has as its system HIV-1 mutant strain L100I. Kind of series: microbe, parasite or virus in culture. Format: cell-based. The note with it: Human immunodeficiency virus 1, MT4, read-out: EC50 L100I.

By EC50 is commonly meant the concentration giving half of the maximal effect. A word on the CC50: it is the concentration that lowers cell viability or growth by half. Read a low CC50 as harm at low concentration. Regarding `Cc1cc(C)cc(S(=O)(=O)c2c(C(=O)NCCCCNS(=O)(=O)c3ccc(Cl)cc3)[nH]c3ccc(Cl)cc23)c1` [R7L4, 5-Chloro-3-((3,5-dimethylphenyl)sulfonyl)-N-(4-((4-chlorophenyl)sulfonamido)butyl)-1H-indole-2-carboxamide], the “SI IIIB (CC50/EC50 ratio)” value in [1] was 10,389. Further, the EC50 in [2] was 1530 ± 720 nM; in [3] it was 130 ± 48 nM; in series [5], 51 ± 18 nM; in [6] it was over 89300 nM; in [7], 180 ± 16 nM; in series [8] it was 260 nM. Moreover, in series [9], the EC50 worked out at 74 ± 21 nM. In series [4], this compound had a CC50 at 5 days of 89300 ± 17800 nM.

Turning to `Cc1cc(C)cc(S(=O)(=O)c2c(C(=O)NCCCCCNS(=O)(=O)c3ccc(Cl)cc3)[nH]c3ccc(Cl)cc23)c1` [R7L5, 5-Chloro-3-((3,5-dimethylphenyl)sulfonyl)-N-(5-((4-chlorophenyl)sulfonamido)pentyl)-1H-indole-2-carboxamide], the “SI IIIB (CC50/EC50 ratio)” value in series [1] was 11,132. Moreover, the EC50 in series [2] was 3140 ± 950 nM; in [3] it was 430 ± 140 nM; in [5], 52 ± 9 nM; in series [6] it was over 115000 nM; in series [7], 190 nM; in [8] it was 370 ± 110 nM. For the same compound, in series [9], the half-maximal effective concentration (EC50) stood at 61 ± 3.2 nM. Also, half-maximal cytotoxicity in [4] (CC50 at 5 days) was put at 115000 ± 8890 nM.

With `Cc1cc(C)cc(S(=O)(=O)c2c(C(=O)NCCNS(=O)(=O)c3cccs3)[nH]c3ccc(Cl)cc23)c1` [R8L2, 5-Chloro-3-((3,5-dimethylphenyl)sulfonyl)-N-(2-(thiophene-2-sulfonamido)ethyl)-1H-indole-2-carboxamide], the “SI IIIB (CC50/EC50 ratio)” value in [1] came to 1558. Besides, the concentration giving a half-maximal response (EC50) came to 6240 ± 650 nM in [2]; 1180 ± 91 nM in series [3]; 1200 ± 18 nM in series [5]; 4630 ± 1540 nM in series [6]; 1000 ± 91 nM in series [7]; 1810 ± 180 nM in [8]. For the same compound, the EC50 in series [9] was 800 ± 94 nM. Besides, the CC50 at 5 days in [4] turned out to be 161000 ± 50300 nM.

Turning to `Cc1cc(C)cc(S(=O)(=O)c2c(C(=O)NCCCNS(=O)(=O)c3cccs3)[nH]c3ccc(Cl)cc23)c1` [R8L3, 5-Chloro-3-((3,5-dimethylphenyl)sulfonyl)-N-(3-(thiophene-2-sulfonamido)propyl)-1H-indole-2-carboxamide], the “SI IIIB (CC50/EC50 ratio)” value in series [1] came out at 2105. Besides, the EC50 was determined as 3540 ± 340 nM in series [2]; 1030 ± 190 nM in series [3]; 280 ± 18 nM in [5]; 5380 ± 1290 nM in series [6]; 1060 ± 18 nM in series [7]; 1650 ± 270 nM in series [8]. Moreover, in [9], the EC50 was determined as 500 ± 140 nM. The compound further registered a cytotoxic concentration (CC50) at 5 days in [4] of 121000 ± 33400 nM.

As for `Cc1cc(C)cc(S(=O)(=O)c2c(C(=O)NCCCCNS(=O)(=O)c3cccs3)[nH]c3ccc(Cl)cc23)c1` [R8L4, 5-Chloro-3-((3,5-dimethylphenyl)sulfonyl)-N-(4-(thiophene-2-sulfonamido)butyl)-1H-indole-2-carboxamide], the “SI IIIB (CC50/EC50 ratio)” value in series [1] was 1953. In addition, the EC50 in series [2] is 1050 ± 35 nM; in [3], 470 ± 69 nM; in [5], 190 ± 17 nM; in series [6] it was over 86500 nM; in series [7], 540 nM; in series [8] it was 360 ± 35 nM. Moreover, in series [9], the EC50 is 130 ± 59 nM. The same compound had a CC50 at 5 days in series [4] of 86500 ± 11800 nM.

In the case of `Cc1cc(C)cc(S(=O)(=O)c2c(C(=O)NCCCCCNS(=O)(=O)c3cccs3)[nH]c3ccc(Cl)cc23)c1` [R8L5, 5-Chloro-3-((3,5-dimethylphenyl)sulfonyl)-N-(5-(thiophene-2-sulfonamido)pentyl)-1H-indole-2-carboxamide], the “SI IIIB (CC50/EC50 ratio)” value in series [1] is reported as 526. For the same compound, the EC50 was 2710 ± 130 nM in [2]; 1230 ± 220 nM in series [3]; 200 ± 51 nM in series [5]; over 43300 nM in [6]; 730 ± 340 nM in [7]; 1260 ± 340 nM in series [8]. Also, the EC50 in [9] turned out to be 170 ± 17 nM. In [4], this compound gave a CC50 at 5 days of 35400 ± 1050 nM.

As for `Cc1cc(C)cc(S(=O)(=O)c2c(C(=O)NCCNS(=O)(=O)c3ccccc3)[nH]c3ccc(Cl)cc23)c1` [R9L2, 5-Chloro-3-((3,5-dimethylphenyl)sulfonyl)-N-(2-(phenylsulfonamido)ethyl)-1H-indole-2-carboxamide], the “SI IIIB (CC50/EC50 ratio)” value in [1] was 13,509. The EC50 turned out to be 2810 ± 290 nM in series [2]; 240 ± 37 nM in series [3]; 220 ± 73 nM in series [5]; 3140 ± 110 nM in [6]; 260 ± 73 nM in series [7]; 1120 ± 350 nM in [8]. In series [9], the EC50 was determined as 260 ± 110 nM. In series [4], the cytotoxic concentration (CC50) at 5 days amounted to 185000 ± 8310 nM.

On to `Cc1cc(C)cc(S(=O)(=O)c2c(C(=O)NCCCNS(=O)(=O)c3ccccc3)[nH]c3ccc(Cl)cc23)c1` [R9L3, 5-Chloro-3-((3,5-dimethylphenyl)sulfonyl)-N-(3-(phenylsulfonamido)propyl)-1H-indole-2-carboxamide], for which, in series [1], the “SI IIIB (CC50/EC50 ratio)” value is given as over 8047. The half-maximal effective concentration (EC50) in [2] stood at 3080 ± 250 nM; in series [3], 320 ± 72 nM; in series [5], 55 ± 18 nM; in series [6], 4760 ± 800 nM; in [7], 700 ± 270 nM; in series [8], 800 ± 250 nM. Further, the EC50 in series [9] was determined as 180 ± 54 nM. The same compound had a CC50 at 5 days in series [4] of over 224000 nM.

In the case of `Cc1cc(C)cc(S(=O)(=O)c2c(C(=O)NCCCCNS(=O)(=O)c3ccccc3)[nH]c3ccc(Cl)cc23)c1` [R9L4, 5-Chloro-3-((3,5-dimethylphenyl)sulfonyl)-N-(4-(phenylsulfonamido)butyl)-1H-indole-2-carboxamide], the “SI IIIB (CC50/EC50 ratio)” value in series [1] is listed as 15,106. Also, the EC50 in series [2] was 870 ± 170 nM; in [3], 150 ± 45 nM; in series [5], 31 ± 7 nM; in series [6] it was over 115000 nM; in series [7], 150 ± 33 nM; in [8], 280 ± 52 nM. For the same compound, the EC50 in series [9] turned out to be 28 ± 8.7 nM. The compound also returned a CC50 at 5 days in series [4] of 113000 ± 26800 nM.

On to `Cc1cc(C)cc(S(=O)(=O)c2c(C(=O)NCCCCCNS(=O)(=O)c3ccccc3)[nH]c3ccc(Cl)cc23)c1` [R9L5, 5-Chloro-3-((3,5-dimethylphenyl)sulfonyl)-N-(5-(phenylsulfonamido)pentyl)-1H-indole-2-carboxamide], for which the “SI IIIB (CC50/EC50 ratio)” value in [1] is reported as 8814. The EC50 in [2] was 1460 ± 560 nM; in series [3] it was 340 ± 51 nM; in series [5] it was 36 ± 7 nM; in series [6], over 119000 nM; in [7] it was 220 ± 17 nM; in series [8], 220 ± 85 nM. Also, the EC50 in series [9] came out at 44 ± 5 nM. In series [4], this compound yielded a CC50 at 5 days of 129000 ± 6850 nM.

In the case of `Cc1cc(C)cc(S(=O)(=O)c2c(C(=O)NCCNS(=O)(=O)c3cccnc3)[nH]c3ccc(Cl)cc23)c1` [R10L2, 5-Chloro-3-((3,5-dimethylphenyl)sulfonyl)-N-(2-(pyridine-3-sulfonamido)ethyl)-1H-indole-2-carboxamide], in [1], the “SI IIIB (CC50/EC50 ratio)” value was 3205. The EC50 in series [2] was 2200 ± 400 nM; in series [3], 290 ± 55 nM; in series [5], 120 ± 33 nM; in series [6], 4600 ± 310 nM; in series [7] it was 290 ± 18 nM; in [8], 1480 ± 270 nM. Also, in series [9], the EC50 is 140 ± 46 nM. Besides, in [4], it took 23400 ± 750 nM to reach half-maximal cytotoxicity (CC50 at 5 days).

`Cc1cc(C)cc(S(=O)(=O)c2c(C(=O)NCCCNS(=O)(=O)c3cccnc3)[nH]c3ccc(Cl)cc23)c1` [R10L3, 5-Chloro-3-((3,5-dimethylphenyl)sulfonyl)-N-(3-(pyridine-3-sulfonamido)propyl)-1H-indole-2-carboxamide]: the “SI IIIB (CC50/EC50 ratio)” value in series [1] was 6950. For the same compound, the EC50 in series [2] was found to be 2320 ± 110 nM; in series [3] it was 200 ± 36 nM; in series [5], 43 ± 5 nM; in [6], 7770 ± 2320 nM; in series [7], 200 ± 18 nM; in [8], 540 ± 270 nM. The EC50 in [9] was 100 ± 32 nM. Moreover, in series [4], the cytotoxic concentration (CC50) at 5 days stood at 55100 ± 8070 nM.

Regarding `Cc1cc(C)cc(S(=O)(=O)c2c(C(=O)NCCCCCNS(=O)(=O)c3cccnc3)[nH]c3ccc(Cl)cc23)c1` [R10L5, 5-Chloro-3-((3,5-dimethylphenyl)sulfonyl)-N-(5-(pyridine-3-sulfonamido)pentyl)-1H-indole-2-carboxamide], the “SI IIIB (CC50/EC50 ratio)” value in series [1] turned out to be 5513. For the same compound, the EC50 in series [2] was 730 ± 34 nM; in series [3], 190 ± 34 nM; in series [5], 29 ± 12 nM; in series [6], 10600 ± 6700 nM; in series [7], 110 ± 22 nM; in series [8] it was 140 ± 75 nM. In series [9], the EC50 was determined as 46 ± 14 nM. In [4], this compound had a CC50 at 5 days of 41900 ± 2180 nM.

Regarding `Cc1cc(C)cc(S(=O)(=O)c2c(C(=O)NCCNS(=O)(=O)c3ccccc3F)[nH]c3ccc(Cl)cc23)c1` [R11L2, 5-Chloro-3-((3,5-dimethylphenyl)sulfonyl)-N-(2-((2-fluorophenyl)sulfonamido)ethyl)-1H-indole-2-carboxamide], in [1], the “SI IIIB (CC50/EC50 ratio)” value was 11,116. Besides, the EC50 in [2] is 2680 ± 250 nM; in series [3], 210 ± 53 nM; in series [5], 200 ± 36 nM; in series [6] it was 3040 ± 210 nM; in series [7], 280 ± 36 nM; in series [8] it was 1230 ± 430 nM. The EC50 in series [9] is 250 ± 71 nM. This compound gave a CC50 at 5 days in [4] of 199000 ± 8290 nM.
